This note sets out measurements from ChEMBL document CHEMBL1201862, “PubChem BioAssay data set” (2004).

Common to all, as to assay: NCI anticancer screen, dose series, 48 h
For experiment [1], the system named is HCC 2998.
The subject of experiment [2] is MDA-MB-231.
In experiment [3] the test system is OVCAR-4.
In experiment [4] the test system is MDA-N.
Experiment [5] concerns K562.
For experiment [6], the system named is ACHN.
In experiment [7] the test system is SF-268.
Experiment [8] concerns CCRF-CEM.
For experiment [9], the system named is SN12C.
Experiment [10] relates to SF-539.
The subject of experiment [11] is NCI/ADR-RES.
Experiment [12] has as its system NCI-H23.
Experiment [13] has as its system MCF7.
For experiment [14], the system named is UACC-62.
For experiment [15], the system named is SK-MEL-2.
For experiment [16], the system named is OVCAR-5.
For experiment [17], the system named is HCT-116.
The test system of experiment [18] is IGROV-1.
In experiment [19] the test system is NCI-H522.
Experiment [20] has as its system RXF 393.

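Dose response: 5 concentrations. Exposure: 48 h. Format: 96-well plates. Endpoint: linear interpolation; highest concentration if not reached. GI50 = concentration required for 50% inhibition of growth.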 The source made the active and inactive calls. Cut-off read from the data, not from the text of the source: active = GI50 up to about 1.1 µM and inactive = higher.

As for `O=P(Oc1ccc(Cl)cc1)(Oc1ccc(Cl)cc1)N1CC1`, the GI50 in experiment [1], in experiment [2], in experiment [3], in experiment [4], in [5] and in experiment [6] was > 10 µM (inactive) throughout. Further, the GI50 in experiment [7] was > 10 µM (inactive); in [8] it was 0.174 µM (active); in experiment [9] it was > 10 µM (inactive); in experiment [10], > 10 µM (inactive); in experiment [11] it was > 10 µM (inactive); in experiment [12], > 10 µM (inactive). Moreover, the GI50 in [13], in experiment [14], in [15] and in experiment [16] was > 10 µM (inactive) in each case.
As for `CC1CN=C(N(Cc2ccc(F)cc2)C(=O)Nc2ccc(Cl)cc2)S1` (stereo not given), the GI50 in [1] was 23.2 µM (inactive); in experiment [2], 32.3 µM (inactive); in [3], 13.3 µM (inactive); in [4] it was 11.7 µM (inactive); in [17], 22.3 µM (inactive); in [5], 9.23 µM (inactive). Further, the GI50 in experiment [6] was 6.68 µM (inactive); in [18], 18.9 µM (inactive); in experiment [7] it was 21.4 µM (inactive); in [8] it was 28 µM (inactive); in [9] it was 28.2 µM (inactive); in [10], 30.5 µM (inactive). The GI50 in [11] is 12.5 µM (inactive); in experiment [12], 26.9 µM (inactive); in experiment [13], 28.8 µM (inactive); in [15], 15.1 µM (inactive); in [16], > 100 µM (inactive).
Take `Nc1nc(-c2ccccc2)c(Cl)c(-c2cc(Cl)ccc2O)n1`: the GI50 was > 81.1 µM (inactive) in experiment [1]; 48.5 µM (inactive) in [2]; 15.3 µM (inactive) in [3]; > 100 µM (inactive) in [4]; 13.4 µM (inactive) in experiment [17]; > 46.5 µM (inactive) in experiment [5]. For the same compound, the GI50 in experiment [6] was 8.89 µM (inactive); in [18], 19.4 µM (inactive); in [7] it was 18.3 µM (inactive); in experiment [8], > 96.2 µM (inactive); in experiment [9], 25.4 µM (inactive); in experiment [10], 25.1 µM (inactive). For the same compound, the GI50 was 11.6 µM (inactive) in experiment [19]; 15.8 µM (inactive) in [12]; 13.8 µM (inactive) in experiment [20]; 2.04 µM (inactive) in experiment [13]; 50.8 µM (inactive) in [14]; 38.4 µM (inactive) in experiment [15]. Further, the GI50 in [16] is > 60 µM (inactive).
In the case of `Oc1ccc(/C=C/c2cccc(/C=C/c3ccc(O)c(O)c3)n2)cc1O`, the GI50 in [1] is 16.5 µM (inactive); in [2], 25.5 µM (inactive); in experiment [3] it was 6.04 µM (inactive); in experiment [4], 7.53 µM (inactive); in experiment [17], 5.98 µM (inactive); in experiment [5], 3.86 µM (inactive). Moreover, the GI50 is 5.14 µM (inactive) in experiment [6]; 6.15 µM (inactive) in [18]; 10.7 µM (inactive) in experiment [7]; 2.75 µM (inactive) in experiment [8]; 8.87 µM (inactive) in experiment [9]; 3.02 µM (inactive) in experiment [10]. The GI50 in experiment [11] was 5.48 µM (inactive); in experiment [13] it was 10.2 µM (inactive); in experiment [14], 6.12 µM (inactive); in [15], 11.7 µM (inactive); in [16], 9.95 µM (inactive).
`CC(C)Oc1cccc(N2C(NCc3c[nH]c4ccccc34)=Nc3ccncc3S2(=O)=O)c1`: the GI50 was 25.5 µM (inactive) in experiment [1]; 34.4 µM (inactive) in experiment [3]; 31.6 µM (inactive) in [4]; 27.7 µM (inactive) in [17]; 21.1 µM (inactive) in [5]; 20.4 µM (inactive) in [6]. Moreover, the GI50 in experiment [18] is 20.4 µM (inactive); in experiment [7] it was 32.2 µM (inactive); in [8], 35.2 µM (inactive); in experiment [9], 39.5 µM (inactive); in experiment [10], 53.6 µM (inactive); in experiment [19], 17.4 µM (inactive). Moreover, the GI50 is 19.7 µM (inactive) in experiment [11]; 22.8 µM (inactive) in experiment [12]; 40.3 µM (inactive) in [20]; 18.4 µM (inactive) in experiment [13]; 11.9 µM (inactive) in [14]; 18.6 µM (inactive) in experiment [15]. The GI50 in experiment [16] is 47.8 µM (inactive).
For the compound `COC(CNC(=O)C(C)NC(=O)C(C)NC(=O)c1ccccc1)OC` (stereo not given), the GI50 in experiment [2], in [3], in [4], in experiment [17], in experiment [5] and in experiment [6] was > 100 µM (inactive) throughout. In addition, the GI50 in experiment [18], in experiment [7], in [8], in experiment [9], in experiment [10] and in [19] was > 100 µM (inactive) throughout. The GI50 in [11], in experiment [12], in experiment [20], in experiment [13], in experiment [14] and in [15] was > 100 µM (inactive) in each case. In addition, the GI50 in experiment [16] was > 100 µM (inactive).
On to `CC(C)(Oc1ccc(C2C[C@H]2Cl)cc1)C(=O)O` (stereo not given in full), for which the GI50 in experiment [2], in [3], in experiment [4], in [17], in experiment [5] and in experiment [18] was > 100 µM (inactive) in each case. Further, the GI50 in experiment [9], in [10], in experiment [19], in [20], in experiment [13] and in experiment [14] was > 100 µM (inactive) each time. Besides, the GI50 in experiment [15] and in experiment [16] was > 100 µM (inactive) each time.
In the case of `CCCCNC(=O)Cn1c2ccc(Br)cc2c2nc3ccccc3nc21`, the GI50 in experiment [2] was > 100 µM (inactive); in experiment [4], > 100 µM (inactive); in experiment [17] it was 64.3 µM (inactive); in [5], > 100 µM (inactive); in experiment [6] it was > 100 µM (inactive); in [18], > 100 µM (inactive). The GI50 is 97.1 µM (inactive) in experiment [7]; > 100 µM (inactive) in experiment [8]; 84.3 µM (inactive) in experiment [9]; 42.2 µM (inactive) in experiment [11]; > 100 µM (inactive) in experiment [12]; > 100 µM (inactive) in experiment [20]. The GI50 in experiment [14], in experiment [15] and in experiment [16] was > 100 µM (inactive) in each case.
Consider `C[n+]1c2ccccc2c(C(=O)Nc2ccc(S(=O)(=O)Nc3ncccn3)cc2)c2ccccc21`, for which the GI50 in [1] was > 100 µM (inactive); in experiment [2] it was 71.9 µM (inactive); in experiment [3], > 100 µM (inactive); in [4], 47.4 µM (inactive); in experiment [17], 72.6 µM (inactive); in experiment [5], 97.5 µM (inactive). Also, the GI50 is > 100 µM (inactive) in experiment [6]; > 100 µM (inactive) in experiment [18]; > 100 µM (inactive) in experiment [7]; > 100 µM (inactive) in experiment [9]; > 100 µM (inactive) in experiment [10]; 32.5 µM (inactive) in experiment [11]. Besides, the GI50 in experiment [12], in experiment [13], in experiment [14], in [15] and in experiment [16] was > 100 µM (inactive) each time.
On to `CCCC(=O)NC(Nc1ccc(S(=O)(=O)Nc2nc(C)cc(C)n2)cc1)(C(F)(F)F)C(F)(F)F`, for which the GI50 in experiment [1], in experiment [2], in [3], in [4], in [17] and in experiment [5] was > 100 µM (inactive) in each case. Besides, the GI50 in experiment [6], in experiment [18], in experiment [7], in experiment [8], in experiment [9] and in [10] was > 100 µM (inactive) each time. In addition, the GI50 in experiment [19], in [11], in experiment [12], in experiment [20], in [14] and in [15] was > 100 µM (inactive) in each case. Besides, the GI50 in experiment [16] is > 100 µM (inactive).
`S=c1sc2c(s1)SCCCCSCCCCSc1sc(=S)sc1SCCCCSCCCCS2`: the GI50 in experiment [1], in experiment [2], in experiment [4], in [17], in experiment [5] and in experiment [6] was > 100 µM (inactive) each time. Further, the GI50 in experiment [18] was > 100 µM (inactive); in [7], 93.1 µM (inactive); in [8] it was > 100 µM (inactive); in [9] it was > 100 µM (inactive); in [10], > 100 µM (inactive); in experiment [19], > 100 µM (inactive). In addition, the GI50 in experiment [11], in [12], in experiment [13], in experiment [14], in experiment [15] and in experiment [16] was > 100 µM (inactive) throughout.
